This note sets out measurements from patent US7285558B2, “Pyrazolo[3,4-d]pyrimidines inhibiting H. pylori infections” (AstraZeneca AB, priority 2001, dated 2007).

Counter-ions that a name gives are not always drawn.

Series [1] addresses T1, H. pylori MurI (Helicobacter pylori, UniProt Q9ZLT0).
T1 sequence (Q9ZLT0 1-255): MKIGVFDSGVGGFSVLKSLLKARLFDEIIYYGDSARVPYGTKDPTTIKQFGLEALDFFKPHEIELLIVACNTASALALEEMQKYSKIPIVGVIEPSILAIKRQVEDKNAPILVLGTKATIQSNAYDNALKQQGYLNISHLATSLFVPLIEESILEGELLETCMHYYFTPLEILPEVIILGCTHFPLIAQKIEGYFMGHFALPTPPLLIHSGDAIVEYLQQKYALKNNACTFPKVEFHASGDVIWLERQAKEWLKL
Kind of series: Glutamate racemase (MurI) activity assay, coupled to L-glutamate dehydrogenase (LGDH), fluorescence readout. The format is biochemical. Particulars: 1000 nM H. pylori MurI, 40 μM D-glutamate, room temperature, read-out: LGDH I50. As to the method:
Glutamate Racemase Activity Assay:
Glutamate racemase (MurI) activity was assayed by measuring the conversion of glutamate from D to L enantiomer. This reaction was coupled to the reduction of NAD^+ to NADH by L-glutamate dehydrogenase (LGDH). LGDH from bovine liver was obtained as a lyophilized powder (Sigma #G-7882) and dissolved in 10 mM Tris (Sigma #T-6791), pH 7.5, buffer containing 0.1 mM EDTA (Fisher #BP118-500) and 50% glycerol (Sigma #G-9012). The assay mixture consisted of 100 mM Tris-HCl, pH 8.0, 10 mM β-NAD (Sigma #N-7004), 5 mM DTT (Sigma #D-5545), 0.03% PEG (mw 8000, Sigma #P-5413), 0.03 mg/mL BSA (Pierce #23210), 15 U/mL LGDH, D-glutamate (Fluka #49460), and purified MurI. The following MurI concentrations were used: 1000 nM H. pylori MurI, 0.7 nM E. faecalis MurI, or 0.4 nM E. coli MurI. In the case of E. coli MurI 14 μM UDP-MurNAc-Ala was also added. The final concentration of D-glutamate added for H. pylori MurI was 40 μM, and the other orthologs used 1 mM D-glutamate. The assay was performed in 96-well black microtiter plates (Greiner #XN2-9511) with a final assay volume of 100 μL. Compounds were prepared (x) […]
[…] as 20 mM stock solutions in dimethyl sulphoxide (DMSO, Sigma #D-5879) and serial dilutions were prepared from these solutions using DMSO, 2 μL of which were added to the wells. Activity at room temperature was measured by monitoring the increase in fluorescence using a TECAN Ultra platereader with 340 nm excitation and 465 nm emission filters. The compounds provided have measured IC50 of less then 400 μM

As for `CCC(C#N)n1c(=O)n(C)c(=O)c2c(-c3ccncc3)n(Cc3cccc4ccccc34)nc21` (racemic) [Example 130, ±2-[5-methyl-2-(1-naphthylmethyl)-4,6-dioxo-3-(4-pyridinyl-2,4,5,6-tetrahydro-7H-pyrazolo[3,4-d]pyrimidin-7-yl]butanenitrile], the IC50 in series [1] turned out to be 9.1 µM.

Regarding `CCC(C#N)n1c(=O)n(C)c(=O)c2c(-c3ccncc3)n(Cc3cccc4ccccc34)nc21` (racemic) (as salt: trifluoroacetate) [Example 130, ±2-[5-methyl-2-(1-naphthylmethyl)-4,6-dioxo-3-(4-pyridinyl-2,4,5,6-tetrahydro-7H-pyrazolo[3,4-d]pyrimidin-7-yl]butanenitrile], the melting point (as a rule, the temperature of the solid-liquid transition) lay in the range of 75 to 77 °C.

With `Cn1c(=O)c2c(-c3ccncc3)n(Cc3cccc4ccccc34)nc2n(CS(=O)(=O)C(F)(F)F)c1=O` [Example 126, 5-methyl-2-(1-naphthylmethyl)-3-(4-pyridinyl)-7-{[(trifluoromethyl)sulfonyl]methyl}-2H-pyrazolo[3,4-d]pyrimidine-4,6(5H,7H)-dione], the IC50 in series [1] came out at 18 µM.

The molecule `Cn1c(=O)c2c(-c3ccncc3)n(Cc3cccc4ccccc34)nc2n(C[S+]([O-])c2ccccc2)c1=O` (stereo not shown) [Example 128, 5-methyl-2-(1-naphthylmethyl)-7-[(phenylsulfinyl)methyl]-3-pyridin-4-yl-2H-pyrazolo[3,4-d]pyrimidine-4,6(5H,7H)-dione] came in with a melting point of 130 to 135 °C.

The molecule `Cn1c(=O)c2c(-c3ccncc3)n(Cc3cccc4ccccc34)nc2n(C[S+](C)[O-])c1=O` (racemic) [Example 127, (±)5-methyl-7-[(methylsulfinyl)methyl]-2-(1-naphthylmethyl)-3-pyridin-4-yl-2H-pyrazolo[3,4-d]pyrimidine-4,6(5H,7H)-dione] gave a melting point of 107 to 109 °C. For the same molecule, the IC50 in series [1] was 26 µM.

`CC(C)Cn1c(=O)n(C)c(=O)c2c(-c3cccc(-c4nnn[nH]4)c3)n(Cc3cccc4ccccc34)nc21` [Example 129, 7-isobutyl-5-methyl-2-(1-naphthylmethyl)-3-[3-(1H-1,2,3,4-tetraazol-5-yl)phenyl]-2H-pyrazolo[3,4-d]pyrimidine-4,6(5H,7H)-dione] gave a melting point of 251 to 254 °C. Further, in series [1], the IC50 was 1.6 µM.

Consider `Cn1c(=O)c2c(-c3ccncc3)n(Cc3cccc4ccccc34)nc2n(C[S+]([O-])C(F)(F)F)c1=O` (racemic) [Example 125, (±)5-methyl-2-(1-naphthylmethyl)-3-(4-pyridinyl)-7-{[(trifluoromethyl)sulfinyl]methyl}-2H-pyrazolo[3,4-d]pyrimidine-4,6(5H,7H)-dione,7H)-dione], for which, in series [1], the IC50 turned out to be 45.7 µM.

Consider `CC(C)Cn1c(=O)n(C)c(=O)c2c(-c3ccccc3F)n(Cc3csc4ccccc34)nc21` [Example 131, 2-(1-benzothiophen-3-ylmethyl)-3-(2-fluorophenyl)-7-isobutyl-5-methyl-2H-pyrazolo[3,4-d]pyrimidine-4,6(5H,7H)-dione], for which the melting point is 55 to 57 °C.
